In assay [1] the test system is Plasmodium falciparum. The assay can be described thus: Antimalarial activity against chloroquine-sensitive Plasmodium falciparum 3D7 assessed as incorporation of [3H]hypoxanthine after 48 hr microdilution method. In kind it is functional, organism-based. (In general: In broth dilution the organism is exposed to a series of concentrations in liquid medium.)
Assay [2] concerns Heme. The assay can be described thus: Inhibition of heme polymerization in Plasmodium falciparum after 15 min by liquid scintillation counting analysis in presence of [14C]-hemin chloride.
For assay [3], the system named is Plasmodium falciparum. The assay can be described thus: Antimalarial activity against chloroquine-resistant Plasmodium falciparum K1 assessed as incorporation of [3H]hypoxanthine after 48 hr microdilution method. Format: functional, organism-based.

`CCN(CC)CCCC(C)Nc1c2ccc(Cl)cc2nc2ccc(OC)cc12` (stereo unspecified) [QUINACRINE]: the IC50 in assay [1] amounted to 13 nM; in assay [2], 41000 nM.
Take `CCN(CC)Cc1cc(Nc2ccnc3cc(Cl)ccc23)cc(-c2ccc(Cl)cc2)c1` [DEHYDROXY TEBAQUINE]: the results for the IC50 in assay [1] and in assay [2] were 42 nM and 51000 nM, respectively.
`CCCCN(CCCC)CCC(O)c1cc2c(Cl)cc(Cl)cc2c2cc(C(F)(F)F)ccc12` (stereo unspecified) [HALOFANTRINE]: the IC50 in assay [1] was 5.8 nM; in assay [3] it was 2.8 nM; in assay [2], 180000 nM.
Take `CCN(CC)Cc1cc(Nc2ccncc2)ccc1O`: the IC50 is 680 nM in assay [1] and 72000 nM in assay [2].
On to `CC(CCCN1CCCC1)Nc1ccnc2cc(Cl)ccc12` (stereo unspecified) [Chloroquine-pyrolidinyl], for which the results for the half-maximal inhibitory concentration (IC50) in assay [1] and in assay [2] were 19 nM and 44000 nM, respectively.
For `O[C@@H](c1cc(C(F)(F)F)nc2c(C(F)(F)F)cccc12)[C@H]1CCCCN1` (relative stereo) [(S,R)-MEFLOQUINE], the IC50 in assay [1] came to 23 nM; in assay [3], 9.4 nM; in assay [2] it was 47000 nM.
Consider `NCc1cc(Nc2ccnc3cc(Cl)ccc23)ccc1O` [BIDESETHYL AMODIAQUINE], for which the IC50 in assay [1] stood at 21 nM; in assay [3], 170 nM; in assay [2], 73000 nM.
Take `CCN(CC)CCCC(C)Nc1ccnc2cc(Cl)ccc12` (stereo unspecified) [CHLOROQUINE]: the IC50 in assay [2] stood at 24000 nM.
With `C=C[C@H]1CN2CC[C@H]1C[C@H]2[C@H](O)c1ccnc2ccccc12` [CINCHONIDINE], the figures for the IC50 in assay [1], in assay [3] and in assay [2] were 40 nM, 91 nM and 27000 nM, respectively.
In the case of `Oc1ccc(Nc2ccnc3cc(Cl)ccc23)cc1`, the IC50 in assay [1] was determined as 1400 nM; in assay [2], 19000 nM.
For the molecule `CC(CCCN)Nc1ccnc2cc(Cl)ccc12` (stereo unspecified) [BIDESETHYL CHLOROQUINE], the IC50 came out at 55 nM in assay [1] and 58000 nM in assay [2].
Consider `Oc1ccc(Nc2ccnc3cc(Cl)ccc23)cc1CN1CCCC1` [AMOPYROQUINE], for which the IC50 in assay [1] came out at 5.3 nM; in assay [3], 12 nM; in assay [2], 30000 nM.
In the same order, the values of `CCNCc1cc(Nc2ccnc3cc(Cl)ccc23)ccc1O` [DESETHYL AMODIAQUINE] are 6.9 nM, 39 nM and 43000 nM.
In the same order, the values of `CCNCCCC(C)Nc1ccnc2cc(Cl)ccc12` (stereo unspecified) [DESETHYLCHLOROQUINE] are 19 nM, 720 nM and 45000 nM.
Consider `C=C[C@H]1CN2CC[C@H]1C[C@H]2[C@H](O)c1ccnc2ccc(OC)cc12` [QUININE], for which the figures for the IC50 in assay [1] and in assay [2] were 34 nM and 65000 nM, respectively.
For the molecule `CCN(CC)Cc1cc(Nc2ccnc3cc(Cl)ccc23)ccc1O`, the values for the IC50 in assay [1], in assay [3] and in assay [2] were 7.8 nM, 18 nM and 15000 nM, respectively.
For the molecule `CCN(CC)Cc1cc(Nc2ccnc3cc(Cl)ccc23)cc(-c2ccc(Cl)cc2)c1O` [TEBAQUINE], the IC50 in assay [1] came out at 9.5 nM; in assay [3] it was 13 nM; in assay [2], 53000 nM.
For `COc1ccc2nc3cc(Cl)ccc3c(Nc3cc(CN4CCCC4)c(O)c(CN4CCCC4)c3)c2n1` [PYRONARIDINE] the same measures were 5.7 nM, 9.1 nM and 64000 nM.
In the case of `CC(C)(C)NCc1cc(Nc2ccnc3cc(Cl)ccc23)ccc1O` [N-TERT-BUTYL-AMODIAQUINE], the IC50 in assay [1] was 5.5 nM; in assay [3] it was 9.1 nM; in assay [2], 32000 nM.
In the same order, the values of `CCN(CC)CCCC(C)Nc1ccncc1` (stereo unspecified) are 12000 nM, 15000 nM and 92000 nM.
In the same order, the values of `C=C[C@H]1CN2CC[C@H]1C[C@@H]2[C@@H](O)c1ccnc2ccccc12` [CINCHONINE] are 21 nM, 56 nM and 23000 nM.
Take `C=C[C@H]1CN2CC[C@H]1C[C@@H]2[C@@H](O)c1ccnc2ccc(OC)cc12` [QUINIDINE]: the results for the IC50 in assay [1] and in assay [2] were 21 nM and 24000 nM, respectively.

By IC50 is commonly meant the midpoint of a concentration-inhibition curve.

For the origin of these results see ChEMBL document CHEMBL3044897, “Pharmacophore-based predictive model generation for potent antimalarials targeting haem detoxification pathway” (Med Chem Res, 2007).
